# From US12473304B2, “Heterocyclic PAD4 inhibitors” (BRISTOL-MYERS SQUIBB COMPANY, priority 2020, dated 2025)
# pIC50: −log10 of the molar value.
# Biological target: human PAD4 (hPAD4) (Homo sapiens (Human), UniProt Q9UM07)
# Assay: RFMS Human PAD4 Functional Assay 1
# Type: biochemical
# Conditions: RFMS assay 1; 5 nM hPAD4, 250 μM BAEE substrate, 50 μM calcium, 37° C.
# Method in brief: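 Recombinant hPAD4 (5 nM) was preincubated with compound (top 50 μM, 0.5% DMSO) for 30 min at 37 °C, then reacted with 250 μM BAEE for 90 min at 37 °C in pH 7.5 HEPES buffer with 50 μM calcium and 5 μM TPEN. Product was derivatized with phenyl glyoxal and quantified by RapidFire MS.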
# Chain of human PAD4 (hPAD4) (Q9UM07 whole entry): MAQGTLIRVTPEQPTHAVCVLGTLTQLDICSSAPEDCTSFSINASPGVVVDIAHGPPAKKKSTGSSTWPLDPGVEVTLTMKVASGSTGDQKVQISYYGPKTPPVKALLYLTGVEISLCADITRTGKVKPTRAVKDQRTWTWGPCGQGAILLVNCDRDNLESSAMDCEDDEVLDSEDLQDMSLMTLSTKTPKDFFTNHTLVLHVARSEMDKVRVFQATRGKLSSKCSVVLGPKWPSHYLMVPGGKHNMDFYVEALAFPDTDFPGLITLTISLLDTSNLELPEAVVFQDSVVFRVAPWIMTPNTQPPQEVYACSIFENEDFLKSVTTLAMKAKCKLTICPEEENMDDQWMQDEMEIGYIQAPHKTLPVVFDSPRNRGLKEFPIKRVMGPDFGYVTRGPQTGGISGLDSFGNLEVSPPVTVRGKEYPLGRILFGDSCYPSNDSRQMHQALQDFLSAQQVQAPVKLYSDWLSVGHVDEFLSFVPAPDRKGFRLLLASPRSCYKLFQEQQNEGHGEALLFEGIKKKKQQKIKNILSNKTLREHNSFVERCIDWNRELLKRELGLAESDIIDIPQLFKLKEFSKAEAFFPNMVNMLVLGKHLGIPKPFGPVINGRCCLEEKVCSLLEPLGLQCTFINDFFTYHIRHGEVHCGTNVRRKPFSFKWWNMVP
row,Structure (SMILES),pIC50
1,"COc1cc(C(=O)N2CCC[C@@H](N)C2)cn2nc(-c3cc4cc(F)cc(C5CCN(C(C)=O)CC5)c4n3CC3CC3)c(C)c12 [Example 483, (R)-1-(4-(2-(6-(3-Aminopiperidine-1-carbonyl)-4-methoxy-3-methylpyrazolo[1,5-a]pyridin-2-yl)-1-(cyclopropylmethyl)-5-fluoro-1H-indol-7-yl)piperidin-1-yl)ethan-1-one]",6.82
2,"Cc1c(-c2cc3cc(F)cc(C4CCN(C(=O)[C@H]5CC[C@H](O)CC5)CC4)c3n2CC2CC2)nn2cc(C(=O)N3CCC[C@@H](N)C3)ccc12 [Example 484, ((R)-3-Aminopiperidin-1-yl)(2-(1-(cyclopropylmethyl)-5-fluoro-7-(1-((1r,4r)-4-hydroxycyclohexane-1-carbonyl)piperidin-4-yl)-1H-indol-2-yl)-3-methylpyrazolo[1,5-a]pyridin-6-yl)methanone]",6.82
3,"Cc1c(-c2cc3cc(F)cc(C4CCN(C(=O)[C@H]5CC[C@@H](O)CC5)CC4)c3n2CC2CC2)nn2cc(C(=O)N3CCC[C@@H](N)C3)ccc12 [Example 485, ((R)-3-Aminopiperidin-1-yl)(2-(1-(cyclopropylmethyl)-5-fluoro-7-(1-((1s,4s)-4-hydroxycyclohexane-1-carbonyl)piperidin-4-yl)-1H-indol-2-yl)-3-methylpyrazolo[1,5-a]pyridin-6-yl)methanone]",6.82
4,"Cc1c(-c2cc3cc(F)cc(C4CCN(C(=O)[C@H]5CC[C@@H](O)CC5)CC4)c3n2CC2CC2)nn2cc(C(=O)N3C[C@H](N)C[C@@H](F)C3)ccc12 [Example 486, ((3R,5R)-3-Amino-5-fluoropiperidin-1-yl)(2-(1-(cyclopropylmethyl)-5-fluoro-7-(1-((1s,4s)-4-hydroxycyclohexane-1-carbonyl)piperidin-4-yl)-1H-indol-2-yl)-3-methylpyrazolo[1,5-a]pyridin-6-yl)methanone]",7.15
5,"Cc1c(-c2cc3cc(F)cc(C4CCN(C(=O)[C@H]5CC[C@H](O)CC5)CC4)c3n2CC2CC2)nn2cc(C(=O)N3C[C@H](N)C[C@@H](F)C3)ccc12 [Example 487, ((3R,5R)-3-Amino-5-fluoropiperidin-1-yl)(2-(1-(cyclopropylmethyl)-5-fluoro-7-(1-((1r,4r)-4-hydroxycyclohexane-1-carbonyl)piperidin-4-yl)-1H-indol-2-yl)-3-methylpyrazolo[1,5-a]pyridin-6-yl)methanone]",6.70
6,"COC(C)(C)C(=O)N1CCC(c2cc(F)cc3cc(-c4nn5cc(C(=O)N6CCC[C@@H](N)C6)ccc5c4C)n(CC4CC4)c23)CC1 [Example 493, (R)-1-(4-(2-(6-(3-Aminopiperidine-1-carbonyl)-3-methylpyrazolo[1,5-a]pyridin-2-yl)-1-(cyclopropylmethyl)-5-fluoro-1H-indol-7-yl)piperidin-1-yl)-2-methoxy-2-methylpropan-1-one]",6.96
7,"Cc1c(-c2cc3cc(F)cc(C4CCN(C(=O)CC(C)C)CC4)c3n2CC2CC2)nn2cc(C(=O)N3C[C@H](N)C[C@@H](F)C3)ccc12 [Example 495, 1-(4-(2-(6-((3R,5R)-3-Amino-5-fluoropiperidine-1-carbonyl)-3-methylpyrazolo[1,5-a]pyridin-2-yl)-1-(cyclopropylmethyl)-5-fluoro-1H-indol-7-yl)piperidin-1-yl)-3-methylbutan-1-one]",6.48
8,"CO[C@H](C)C(=O)N1CCC(c2cc(F)cc3cc(-c4nn5cc(C(=O)N6CCC[C@@H](N)C6)ccc5c4C)n(CC4CC4)c23)CC1 [Example 497, (R)-1-(4-(2-(6-((R)-3-Aminopiperidine-1-carbonyl)-3-methylpyrazolo[1,5-a]pyridin-2-yl)-1-(cyclopropylmethyl)-5-fluoro-1H-indol-7-yl)piperidin-1-yl)-2-methoxypropan-1-one]",7.40
9,"CO[C@H](C)C(=O)N1CCC(c2cc(F)cc3cc(-c4nn5cc(C(=O)N6C[C@H](N)C[C@@H](F)C6)ccc5c4C)n(CC4CC4)c23)CC1 [Example 498, (R)-1-(4-(2-(6-((3R,5R)-3-Amino-5-fluoropiperidine-1-carbonyl)-3-methylpyrazolo[1,5-a]pyridin-2-yl)-1-(cyclopropylmethyl)-5-fluoro-1H-indol-7-yl)piperidin-1-yl)-2-methoxypropan-1-one]",7.15
10,"CO[C@@H](C)C(=O)N1CCC(c2cc(F)cc3cc(-c4nn5cc(C(=O)N6CCC[C@@H](N)C6)ccc5c4C)n(CC4CC4)c23)CC1 [Example 499, (S)-1-(4-(2-(6-((R)-3-Aminopiperidine-1-carbonyl)-3-methylpyrazolo[1,5-a]pyridin-2-yl)-1-(cyclopropylmethyl)-5-fluoro-1H-indol-7-yl)piperidin-1-yl)-2-methoxypropan-1-one]",6.82
11,"CO[C@@H](C)C(=O)N1CCC(c2cc(F)cc3cc(-c4nn5cc(C(=O)N6C[C@H](N)C[C@@H](F)C6)ccc5c4C)n(CC4CC4)c23)CC1 [Example 500, (S)-1-(4-(2-(6-((3R,5R)-3-Amino-5-fluoropiperidine-1-carbonyl)-3-methylpyrazolo[1,5-a]pyridin-2-yl)-1-(cyclopropylmethyl)-5-fluoro-1H-indol-7-yl)piperidin-1-yl)-2-methoxypropan-1-one]",6.62
12,"COC(C)(C)C(=O)N1CCC(c2cc(F)cc3cc(-c4nn5cc(C(=O)N6C[C@H](N)C[C@@H](F)C6)ccc5c4C)n(CC4CC4)c23)CC1 [Example 501, 1-(4-(2-(6-((3R,5R)-3-Amino-5-fluoropiperidine-1-carbonyl)-3-methylpyrazolo[1,5-a]pyridin-2-yl)-1-(cyclopropylmethyl)-5-fluoro-1H-indol-7-yl)piperidin-1-yl)-2-methoxy-2-methylpropan-1-one]",6.89
13,"COCC(=O)N1CCC(c2cc(F)cc3cc(-c4nn5cc(C(=O)N6CCC[C@@H](N)C6)ccc5c4C)n(CC4CC4)c23)CC1 [Example 502, (R)-1-(4-(2-(6-(3-Aminopiperidine-1-carbonyl)-3-methylpyrazolo[1,5-a]pyridin-2-yl)-1-(cyclopropylmethyl)-5-fluoro-1H-indol-7-yl)piperidin-1-yl)-2-methoxyethan-1-one]",7.15
14,"COCC(=O)N1CCC(c2cc(F)cc3cc(-c4nn5cc(C(=O)N6C[C@H](N)C[C@@H](F)C6)ccc5c4C)n(CC4CC4)c23)CC1 [Example 503, 1-(4-(2-(6-((3R,5R)-3-Amino-5-fluoropiperidine-1-carbonyl)-3-methylpyrazolo[1,5-a]pyridin-2-yl)-1-(cyclopropylmethyl)-5-fluoro-1H-indol-7-yl)piperidin-1-yl)-2-methoxyethan-1-one]",7.22
15,"Cc1c(-c2cc3cc(F)cc(C4CCN(C(=O)C5CC(O)(C(F)(F)F)C5)CC4)c3n2CC2CC2)nn2cc(C(=O)N3CCC[C@@H](N)C3)ccc12 (stereo partly drawn) [Example 504, (R)-(3-Aminopiperidin-1-yl)(2-(1-(cyclopropylmethyl)-5-fluoro-7-(1-(3-hydroxy-3-(trifluoromethyl)cyclobutane-1-carbonyl)piperidin-4-yl)-1H-indol-2-yl)-3-methylpyrazolo[1,5-a]pyridin-6-yl)methanone]",6.96
16,"CC(=O)N1CCC(c2cc(F)cc3cc(-c4nn5cc(C(=O)N6CCC[C@@H](N)C6)ccc5c4C)n(CC4CC4)c23)CC1 [Example 506, (R)-1-(4-(2-(6-(3-Aminopiperidine-1-carbonyl)-3-methylpyrazolo[1,5-a]pyridin-2-yl)-1-(cylcopropylmethyl)-5-fluoro-1H-indol-7-yl)piperidin-1-yl)ethan-1-one]",7.15
17,"CC(=O)N1CCC(c2cc(F)cc3cc(-c4nn5cc(C(=O)N6C[C@H](N)C[C@@H](F)C6)ccc5c4C)n(CC4CC4)c23)CC1 [Example 507, 1-(4-(2-(6-((3R,5R)-3-Amino-5-fluoropiperidine-1-carbonyl)-3-methylpyrazolo[1,5-a]pyridin-2-yl)-1-(cyclopropylmethyl)-5-fluoro-1H-indol-7-yl)piperidin-1-yl)ethan-1-one]",6.77
18,"COCC(=O)N1CCC(c2nccc3cc(-c4nn5cc(C(=O)N6C[C@H](N)C[C@@H](F)C6)cc(OC)c5c4C)n(CC4CC4)c23)CC1 [Example 511, 1-(4-(2-(6-((3R,5R)-3-Amino-5-fluoropiperidine-1-carbonyl)-4-methoxy-3-methylpyrazolo[1,5-a]pyridin-2-yl)-1-(cyclopropylmethyl)-1H-pyrrolo[2,3-c]pyridin-7-yl)piperidin-1-yl)-2-methoxyethan-1-one]",8.00
19,"COc1cc(C(=O)N2C[C@H](N)C[C@@H](F)C2)cn2nc(-c3cc4cccc(C5CN(C(=O)[C@H]6CC[C@H](O)CC6)C5)c4n3CC3CC3)c(C)c12 [Example 514, ((3R,5R)-3-Amino-5-fluoropiperidin-1-yl)(2-(1-(cyclopropylmethyl)-7-(1-((1R,4R)-4-hydroxycyclohexane-1-carbonyl)azetidin-3-yl)-1H-indol-2-yl)-4-methoxy-3-methylpyrazolo[1,5-a]pyridin-6-yl)methanone]",7.22
20,"COc1cc(C(=O)N2CCC[C@@H](N)C2)cn2nc(-c3cc4cccc(C5CN(C(=O)C(C)(C)OC)C5)c4n3CC3CC3)c(C)c12 [Example 516, (R)-1-(3-(2-(6-(3-Aminopiperidine-1-carbonyl)-4-methoxy-3-methylpyrazolo[1,5-a]pyridin-2-yl)-1-(cyclopropylmethyl)-1H-indol-7-yl)azetidin-1-yl)-2-methoxy-2-methylpropan-1-one]",5.98
21,"COc1cc(C(=O)N2CCC[C@@H](N)C2)cn2nc(-c3cc4cccc(C5CN(C(=O)[C@H]6CC[C@H](O)CC6)C5)c4n3CC3CC3)c(C)c12 [Example 517, ((R)-3-Aminopiperidin-1-yl)(2-(1-(cyclopropylmethyl)-7-(1-((1r,4r)-4-hydroxycyclohexane-1-carbonyl)azetidin-3-yl)-1H-indol-2-yl)-4-methoxy-3-methylpyrazolo[1,5-a]pyridin-6-yl)methanone]",7.22
